These results are taken from ChEMBL document CHEMBL3638724, “Selective androgen receptor modulators” (2015).

This assay addresses T1, Androgen receptor (Homo sapiens, UniProt P10275).
T1 sequence (P10275 whole entry): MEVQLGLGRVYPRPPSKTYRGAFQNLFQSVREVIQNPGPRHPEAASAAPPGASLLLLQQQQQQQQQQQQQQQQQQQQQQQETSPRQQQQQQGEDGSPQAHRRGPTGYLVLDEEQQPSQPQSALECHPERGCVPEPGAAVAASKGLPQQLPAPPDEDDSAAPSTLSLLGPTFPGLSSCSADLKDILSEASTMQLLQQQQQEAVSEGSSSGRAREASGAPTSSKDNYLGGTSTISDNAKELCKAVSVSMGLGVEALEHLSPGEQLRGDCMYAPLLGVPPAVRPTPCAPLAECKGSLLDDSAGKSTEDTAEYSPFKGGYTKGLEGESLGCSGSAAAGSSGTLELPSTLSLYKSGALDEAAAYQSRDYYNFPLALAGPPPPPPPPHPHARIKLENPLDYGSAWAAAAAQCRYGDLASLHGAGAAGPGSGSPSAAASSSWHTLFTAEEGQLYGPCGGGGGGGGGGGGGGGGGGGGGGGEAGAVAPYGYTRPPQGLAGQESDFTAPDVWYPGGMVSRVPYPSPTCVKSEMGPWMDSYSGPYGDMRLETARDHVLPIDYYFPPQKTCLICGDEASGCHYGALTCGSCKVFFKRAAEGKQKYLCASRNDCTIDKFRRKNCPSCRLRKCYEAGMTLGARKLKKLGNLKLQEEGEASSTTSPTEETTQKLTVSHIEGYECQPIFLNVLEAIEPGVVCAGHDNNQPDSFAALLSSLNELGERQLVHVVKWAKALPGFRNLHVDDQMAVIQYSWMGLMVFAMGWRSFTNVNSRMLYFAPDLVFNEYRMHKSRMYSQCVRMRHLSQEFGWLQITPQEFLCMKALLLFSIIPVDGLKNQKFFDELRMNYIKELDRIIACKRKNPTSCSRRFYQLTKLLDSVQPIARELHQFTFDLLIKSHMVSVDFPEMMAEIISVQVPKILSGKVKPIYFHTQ
The assay can be described thus: The assay was performed as specified by the manufacturer (Invitrogen, Madison, Wis.). Briefly, 1 ul of 10 mM compound was added to 500 ul of AR screening buffer in a 1.5 ml eppendorf tube to make a 2x10-5M stock. 10-fold serial dilutions of the test compounds were prepared ranging in concentration from 10^-5M to 10-12M. Each dilution was added in triplicate to a black 384-microtiter plate. The test compounds will be diluted 2-fold in the final reaction. 2xAR-Fluormone complex was prepared with 2 nM Flourmone AL Green and 30 nM AR. 25 ul of 2x complex was aliquoted to each reaction well, such that the final reaction volume was 50 ul per well. The plate was sealed with a foil cover and incubated in the dark at room temperature.

As to `N#Cc1ccc2[nH]c3c(O)cccc3c2c1`, the IC50 (as a rule, the concentration at which inhibition is half-maximal) stood at 4.6 µM. On to `Oc1cccc2c1[nH]c1ccc(Br)cc12`, for which the IC50 came out at 1.42 µM. In turn, `OC1(C(F)(F)F)c2[nH]c3c(Cl)cc(F)cc3c2CCC1C(F)(F)F` (stereo unspecified) registered an IC50 greater than 10 µM.

With `Oc1c(Br)ccc2c1[nH]c1cc(Cl)c(Cl)cc12`, half-maximal inhibition (IC50) required 0.034 µM. Regarding `OC1(C(F)(F)F)CCCc2c1[nH]c1c(Cl)cc(Cl)c(Cl)c21` (stereo unspecified), the IC50 was greater than 10 µM. For `O[C@]1(C(F)(F)F)CCCc2c1[nH]c1c(Cl)cc(Cl)cc21`, the midpoint of inhibition, the IC50, lay at 0.02 µM. `OC1(C(F)(F)F)CCCc2c1[nH]c1ccc(Cl)c(Cl)c21` (stereo unspecified) displayed an IC50 of 40.2 µM. Against the preceding compound, the IC50 is about 2000-fold higher.

Take `Oc1cccc2c1[nH]c1ccc(Cl)c(Cl)c12`: the IC50 was determined as 0.015 µM. `OC1(C(F)(F)F)CCCc2c1[nH]c1cc(Cl)c(Cl)cc21` (stereo unspecified): the IC50 was found to be 1.56 µM. This IC50 is about 100-fold higher than that of the compound before. Compound `O[C@]1(C(F)(F)F)CCCc2c1[nH]c1cc(Cl)c(Cl)cc21` registered an IC50 of 0.013 µM. Compound `O[C@@]1(C(F)(F)F)CCCc2c1[nH]c1cc(Cl)c(Cl)cc21` returned an IC50 greater than 1 µM.
